Results: patent publication US12240862B2, “Inhibitors of peptidylarginine deiminases” (Gilead Sciences, Inc., priority 2020, dated 2025)
pIC50: −log10 of the molar value.

Target: T1, human PAD4 (Homo sapiens, UniProt Q9UM07)
T1 construct: human PAD4 (NM_012387), A2P663, was PCR amplified; His-SUMO (N, cleaved yes); made in house; host or cells: E. coli BL21(DE3)
Test: In vitro PAD4 BAEE biochemical assay
Settings: human PAD4, BAEE substrate; 5 nM PAD4, 2 mM calcium chloride, 3 mM BAEE; geometric mean of multiple experiments
Procedure: The PCR product was ligated into linearized pET-SUMO vector (Invitrogen, Carlsbad, CA), which is part of the Champion™ pET SUMO Protein Expression System. After sequence verification for the correct orientation, the pET-SUMO-hPAD4 expression plasmid was transformed into BL21(DE3) cells.
E. Coli BL21(DE3) cells were inoculated in LB medium with kanamycin at 37° C. until A600 nm reached about 0.5. Protein expression was induced by addition of 0.5 mM IPTG (final) and continued overnight at 16° C. at 220 rpm.
Cells were harvested by centrifugation at 5000 rpm for 10 minutes at 4° C. The pellet was resuspended in 300 ml lysis buffer (20 mM Tris-HCl, pH 8.0, 1 mM EDTA, 500 mM NaCl, 1 mM (tris(2-carboxyethyl)phosphine) (TCEP), 10% glycerol, and 1% Triton X100 and EDTA free protease inhibitor) and lysed by 3× passage through a microfluidizer (Microfluidics, Newton, MA) at 18,000 psi. The cell lysate was clarified by centrifugation at 30,000 rpm for 60 minutes at 4° C. […] Bound protein was eluted with a 0-100% linear gradient of 100 mL Ni-B buffer (Ni A buffer+0.5 M Imidazole).
The protein was then reloaded onto a Ni—HP column for a reverse purification step and recovered in flow through fraction. The protein with His-Sumo tag removed was then polished using a 16/60 Superdex-200 gel filtration column with gel filtration buffer (20 mM Tris pH 8.0, NaCl 400 mM and 1 mM TCEP). The fractions containing the protein were pulled and frozen at −80° C.
The enzymatic activity of human PAD4 was monitored in a biochemical assay in the presence or absence of compounds using the small peptidyl arginine mimic BAEE (Na-Benzoyl-L-arginine ethyl ester hydrochloride) as substrate. PAD4 activity led to deamination of BAEE and release of ammonia. Levels of ammonia were monitored by using an amine coupling reaction and were indicative of PAD4 enzymatic activity.
One hundred nanoliters of test compounds dissolved in DMSO at various concentrations were dispensed into a 384-well black OptiPlate using a Labcyte Echo instrument. Ten microliters of a solution of recombinant PAD4 and calcium chloride diluted in PAD4 assay buffer (50 mM MOPS [3-(N-morpholino) propanesulfonic acid], pH 7.6; 50 mM sodium chloride; 0.05% Tween-20; 2 mM dithiothreitol) was added to the compound-containing plate and was incubated for 30 minutes at 25° C. Ten microliters of a solution of BAEE (Sigma-Aldrich #B4500) diluted in PAD4 assay buffer was then added to start the reaction. Final concentrations were 5 nM PAD4, 2 mM calcium chloride, and 3 mM BAEE. The reaction mixture was incubated at 25° C. for 2 hours and was stopped with the addition of 10 microliters of a solution of 75 mM EDTA (Ethylenediaminetetraacetic acid) in PAD4 assay buffer. Thirty microliters of detection solution (5 mM o-phthalaldehyde, 50 mM MOPS [3-(N-morpholino) propanesulfonic acid], pH 7.6; 50 mM sodium chloride; 0.05% Tween-20; 5 mM dithiothreitol) was then added and the reaction was incubated for 1 hour at 25° C.

T1 sequence (Q9UM07 2-663): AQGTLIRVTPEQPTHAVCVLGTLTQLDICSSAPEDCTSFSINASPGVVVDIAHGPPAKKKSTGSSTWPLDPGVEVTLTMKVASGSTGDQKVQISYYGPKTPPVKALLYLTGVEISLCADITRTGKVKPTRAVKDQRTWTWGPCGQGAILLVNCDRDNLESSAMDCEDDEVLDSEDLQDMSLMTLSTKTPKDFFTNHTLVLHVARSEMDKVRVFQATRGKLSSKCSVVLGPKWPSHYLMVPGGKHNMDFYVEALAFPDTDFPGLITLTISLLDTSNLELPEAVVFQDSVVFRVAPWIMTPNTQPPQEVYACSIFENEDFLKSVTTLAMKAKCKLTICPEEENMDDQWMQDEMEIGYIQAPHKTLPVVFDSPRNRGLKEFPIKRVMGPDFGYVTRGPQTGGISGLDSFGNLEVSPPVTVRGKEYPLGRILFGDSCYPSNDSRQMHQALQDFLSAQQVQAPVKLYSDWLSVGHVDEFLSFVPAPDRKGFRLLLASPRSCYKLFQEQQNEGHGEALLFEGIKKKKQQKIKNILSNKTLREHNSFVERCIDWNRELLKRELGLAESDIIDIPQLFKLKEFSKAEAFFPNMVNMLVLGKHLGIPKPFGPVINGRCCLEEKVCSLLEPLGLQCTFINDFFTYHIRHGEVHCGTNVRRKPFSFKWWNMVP

pIC50	Compound
6.53	COc1cc(C(=O)N2C[C@H]3CC[C@@H]2[C@@H]3N)cc2nc(-c3cc4ccc([C@@H](C)NC(=O)C(C)(C)C)nc4n3CC3CC3)c(C)n12 [Example 174, N-((R)-1-(2-(7-((1R,4R,7R)-7-amino-2-azabicyclo[2.2.1]heptane-2-carbonyl)-5-methoxy-3-methylimidazo[1,2-a]pyridin-2-yl)-1-(cyclopropylmethyl)-1H-pyrrolo [2,3-b]pyridin-6-yl)ethyl) pivalamide]
7.00	COc1cc(C(=O)N2[C@H]3CC[C@@H]2[C@H](N)C3)cc2nc(-c3cc4ccc([C@@H](C)NC(=O)C(F)(F)F)nc4n3CC3CC3)c(C)n12 [Example 162, ~{N}-[(1~{R})-1-[2-[7-[(1~{R},2~{R},4~{S})-2-amino-7-azabicyclo[2.2.1]heptane-7-carbonyl]-5-methoxy-3-methylimidazo [1,2-a]pyridin-2-yl]-1-(cyclopropylmethyl)pyrrolo [2,3-b]pyridin-6-yl]ethyl]-2,2,2-trifluoroacetamide]
6.18	COc1cc(C(=O)N2[C@H]3CC[C@@H]2[C@H](N)C3)cc2nc(-c3cc4ccc([C@@H](C)NC(=O)C(C)(C)C)nc4n3CC34CC(C3)C4)c(C3CC3)n12 [Example 486, N—((R)-1-(2-(7-((1R,2R,4S)-2-amino-7-azabicyclo[2.2.1]heptane-7-carbonyl)-3-cyclopropyl-5-methoxyimidazo[1,2-a]pyridin-2-yl)-1-(bicyclo[1.1.1]pentan-1-ylmethyl)-1H-pyrrolo[2,3-b]pyridin-6-yl)ethyl)pivalamide]
7.08	COc1cc(C(=O)N2[C@H]3CC[C@@H]2[C@H](N)C3)cc2nc(-c3cc4ccc([C@@H](C)NC(=O)c5cccn(C)c5=O)nc4n3CC3CC3)c(C)n12 [Example 30, ~{N}-[(1~{R})-1-[2-[7-[(1~{R}, 2~{R},4~{S})-2-amino-7-azabicyclo [2.2.1]heptane-7-carbonyl]-5-methoxy-3-methylimidazo [1,2-a]pyridin-2-yl]-1-(cyclopropylmethyl)pyrrolo[2,3-b]pyridin-6-yl]ethyl]-1-methyl-2-oxopyridine-3-carboxamide]
6.99	CCC(CC(=O)N1CCCC1)c1ccc2cc(-c3nc4cc(C(=O)N5[C@H]6CC[C@@H]5[C@H](N)C6)cc(OC)n4c3C)n(CC3CC3)c2n1 (stereo partly shown) [Example 540, 3-[2-[7-[(1~{R},2~{R}, 4~{S})-2-amino-7-azabicyclo[2.2.1]heptane-7-carbonyl]-5-methoxy-3-methylimidazo[1,2-a]pyridin-2-yl]-1-(cyclopropylmethyl)pyrrolo[2,3-b]pyridin-6-yl]-1-pyrrolidin-1-ylpentan-1-one]
7.09	COc1cc(C(=O)N2[C@H]3CC[C@@H]2[C@H](N)C3)cc2nc(-c3cc4ccc(C(C)C(N)=O)nc4n3CC3CC3)c(C)n12 (stereo partly shown) [Example 545]
7.52	CCCC(=O)N[C@H](C)c1ccc2cc(-c3nc4cc(C(=O)N5[C@H]6CC[C@@H]5[C@H](N)C6)cc(OC)n4c3C)n(CC3CC3)c2n1 [Example 90, ~{N}-[(1~{R})-1-[2-[7-[(1~{R},2~{R},4~{S})-2-amino-7-azabicyclo[2.2.1]heptane-7-carbonyl]-5-methoxy-3-methylimidazo [1,2-a]pyridin-2-yl]-1-(cyclopropylmethyl)pyrrolo [2,3-b]pyridin-6-yl]ethyl]butanamide]
6.00	CCc1ccc2cc(-c3nc4cc(C(=O)N5[C@H]6CC[C@@H]5[C@H](N)C6)cc(OC)n4c3C3CCC3)n(CC3CC3)c2n1 [Example 577, [(1~{R},2~{R},4~{S})-2-amino-7-azabicyclo [2.2.1]heptan-7-yl]-[3-cyclobutyl-2-[1-(cyclopropylmethyl)-6-ethylpyrrolo[2,3-b]pyridin-2-yl]-5-methoxyimidazo [1,2-a]pyridin-7-yl]methanone]
4.59	COc1cc(C(=O)N[C@H]2CNC[C@@H](F)C2)cc2nc(-c3cc4ccc(N(C(F)F)S(C)(=O)=O)nc4n3CC3CC3)c(C)n12 [Example 307, 2-[1-(cyclopropylmethyl)-6-[difluoromethyl (methylsulfonyl)amino]pyrrolo[2,3-b]pyridin-2-yl]-~{N}-[(3~{R},5~{S})-5-fluoropiperidin-3-yl]-5-methoxy-3-methylimidazo [1,2-a]pyridine-7-carboxamide]
6.62	COc1cc(C(=O)N2[C@H]3CC[C@@H]2[C@H](N)C3)cc2nc(-c3cc4ccc(N5c6ccccc6CCS5(=O)=O)nc4n3CC3CC3)c(C)n12 [Example 468, [(1~{R},2~{R},4~{S})-2-amino-7-azabicyclo [2.2.1]heptan-7-yl]-[2-[1-(cyclopropylmethyl)-6-(2,2-dioxo-3,4-dihydro-2$l^6,1-benzothiazin-1-yl)pyrrolo[2,3-b]pyridin-2-yl]-5-methoxy-3-methylimidazo[1,2-a]pyridin-7-yl]methanone]
4.52	COc1cc(C(=O)N[C@@H]2CC[C@H]3CC[C@@H]2N3)cc2nc(-c3cc4ccc(N(C(F)F)S(C)(=O)=O)nc4n3CC3CC3)c(C)n12 [Example 298, ~{N}-[(1~{S},2~{R}, 5~{R})-8-azabicyclo [3.2.1]octan-2-yl]-2-[1-(cyclopropylmethyl)-6-[difluoromethyl (methylsulfonyl)amino]pyrrolo[2,3-b]pyridin-2-yl]-5-methoxy-3-methylimidazo[1,2-a]pyridine-7-carboxamide]
7.16	COc1cc(C(=O)N2[C@H]3CC[C@@H]2[C@H](N)C3)cc2nc(-c3cc4ccc([C@@H](C)NC(=O)C(C)(O)C(C)C)nc4n3CC3CC3)c(C)n12 (stereo partly shown) [Example 93, ~{N}-[(1~{R})-1-[2-[7-[(1~ {R},2~{R},4~{S})-2-amino-7-azabicyclo[2.2.1]heptane-7-carbonyl]-5-methoxy-3-methylimidazo [1,2-a]pyridin-2-yl]-1-(cyclopropylmethyl)pyrrolo [2,3-b]pyridin-6-yl]ethyl]-2-hydroxy-2,3-dimethylbutanamide]
6.00	COc1cc(C(=O)N2CCC[C@@H](N)C2)cc2nc(-c3cc4ccc(C(C)(F)F)nc4n3CC3CC3)c(C)n12 [Example 596, [(3~{R})-3-aminopiperidin-1-yl]-[2-[1-(cyclopropylmethyl)-6-(1,1-difluoroethyl)pyrrolo [2,3-b]pyridin-2-yl]-5-methoxy-3-methylimidazo [1,2-a]pyridin-7-yl] methanone]
6.56	COc1cc(C(=O)N2CCC[C@@H](N)C2)cc2nc(-c3cc4ccc(N(C(F)F)S(C)(=O)=O)nc4n3CC(F)(F)F)c(C)n12 [Example 494, ~{N}-[2-[7-[(3~{R})-3-aminopiperidine-1-carbonyl]-5-methoxy-3-methylimidazo[1,2-a]pyridin-2-yl]-1-(2,2,2-trifluoroethyl)pyrrolo [2,3-b]pyridin-6-yl]-~{N}-(difluoromethyl) methanesulfonamide]
4.47	COc1cc(C(=O)N2C[C@@H](N)[C@H](F)C2)cc2nc(-c3cc4ccc(N(C(F)F)S(C)(=O)=O)nc4n3CC3CC3)c(C)n12 [Example 280, ~{N}-[2-[7-[(3~{R}, 4~{R})-3-amino-4-fluoropyrrolidine-1-carbonyl]-5-methoxy-3-methylimidazo [1,2-a]pyridin-2-yl]-1-(cyclopropylmethyl)pyrrolo[2,3-b]pyridin-6-yl]-~{N}-(difluoromethyl) methanesulfonamide]
6.31	COc1cc(C(=O)N2C[C@H]3CCC[C@@H]2[C@@H]3N)cc2nc(-c3cc4ccc(N(C(F)F)S(C)(=O)=O)nc4n3CC3CC3)c(C)n12 [Example 349, N-(2-(7-((1R,5R,8R)-8-amino-6-azabicyclo[3.2.1]octane-6-carbonyl)-5-methoxy-3-methylimidazo [1,2-a]pyridin-2-yl)-1-(cyclopropylmethyl)-1H-pyrrolo[2,3-b]pyridin-6-yl)-N-(difluoromethyl) methanesulfonamide]
